What was measured:
E. coli [1] = experiment: Dextran-coated gold nanoparticle (Au NP)/Con A surface plasmon band shift assay for MIC; type: cell-based, Escherichia coli; settings: E. coli 10^6 CFU, 2 hours at 37° C. in MH broth; Au NPs + Con A 30 minutes at 25° C.
Description: (§1) In order to investigate if the dextran-coated iron oxide nanoparticles can monitor the starch utilization due to bacterial metabolic activity, different populations of Escherichia coli (strain 8739 from ATCC) were grown in starch-containing MH broth (DIFCOTM, BD) for 2 hours at 37° C. For determination of the minimum inhibitory concentration, Escherichia coli (10^6 CFU), Serratia marcescens (ATCC, 106 CFU) and Shigella sonnie (strain 9290 from ATCC, 106CFU) were grown in a starch-containing MH broth (DIFCOTM, BD), for 2 hours at 37° C. in the presence or absence of ampicillin. […]
Accurate determination of the minimum inhibitory concentration (MIC) can prevent adverse side effects, such as renal toxicity. […] Then, aliquots of these samples were incubated with Au NPs for 30 minutes at 25° C., in the presence of Con A. Based on the shifts of the surface plasmon band, the MIC was determined to be 8 μg, as the corresponding surface plasmon band shift was statistically different than the control, containing bacteria growing in the absence of antibiotic (FIG. 8A). […] Bacterial growth was assessed based on the broth's turbidity, whereas absence of turbidity was an indicator of successful antimicrobial susceptibility. […] This concentration was identical to the Au NP-determined MIC, though the Au NP-based method yielded the same results much faster.

E. coli [2] = experiment: Turbidity method (24-hour incubation in MH broth) for MIC; type: cell-based, Escherichia coli; settings: serial dilutions in MH broth, 24-hour incubation at 37° C.
Description: Accurate determination of the minimum inhibitory concentration (MIC) can prevent adverse side effects, such as renal toxicity. Considering that the contemporary MIC determination depends on a day-long process, we examined if Au NPs can yield results faster without sacrificing reliability. Initially, E. coli (10^6 CFU) were incubated for 2 hours at 37° C. in MH broth, in the presence of different concentrations of ampicillin. Then, aliquots of these samples were incubated with Au NPs for 30 minutes at 25° C., in the presence of Con A. Based on the shifts of the surface plasmon band, the MIC was determined to be 8 μg, as the corresponding surface plasmon band shift was statistically different than the control, containing bacteria growing in the absence of antibiotic (FIG. 8A). Correlation with standard methods was achieved by inoculating serial dilutions of ampicillin in MH broth with E. coli, followed by a 24-hour long incubation at 37° C. Bacterial growth was assessed based on the broth's turbidity, whereas absence of turbidity was an indicator of successful antimicrobial susceptibility. […] This concentration was identical to the Au NP-determined MIC, though the Au NP-based method yielded the same results much faster.

E. coli [3] = experiment: High-throughput Au-NP/Con A assay on 96-well plate; type: cell-based, Escherichia coli; settings: E. coli 10^6 CFU, Con A 30-min at 25° C.
Excerpt: Finally, the potential of our Au-NP-based assay for the determination of antimicrobial susceptibility in high-throughput format was investigated. In these studies, samples of heat-inactivated E. coli (10^6 CFU) and E. coli (10^6 CFU) grown in the presence or absence of ampicillin were screened with the Au-NP on a 96-well plate using a microtiter plate reader.

E. coli [4] = experiment: Dextran-coated iron oxide nanoparticle (IO NP)/Con A magnetic relaxation (ΔT2) assay for MIC; type: cell-based, Escherichia coli; settings: E. coli 10^6 CFUs, 2 hours at 37° C. in MH broth; Con A 30-minute incubation at room temperature
Description: as §1
(§2) First, we wanted to determine if magnetic IO NPs coated with dextran could be used to determine and quantify the levels of a polysaccharide (starch) in bacterial culture media. […] The samples were examined in a Bruker 0.47 T (20 MHz) magnetic relaxometer (The MiniSpec, Bruker), and the individual sample's changes in spin-spin relaxation times (ΔT2) were determined based on the formula: |ΔT2incubation time−ΔT2prior ConA|. […]
Then, utilizing the IO NPs, we determined ampicillin's MIC. […] Specifically, the magnetic-relaxation-determined minimum inhibitory concentration was 8 μg, as at this concentration we observed a drastic change in the values of ΔT2. […]

Shigella sonnei = experiment: Dextran-coated IO NP/Con A magnetic relaxation (ΔT2) assay for MIC; type: cell-based; settings: Shigella sonnei 10^6 CFUs, 2 hours at 37° C. in MH broth; Con A 30-minute incubation at room temperature
Description: as §1, with “ampicillin. For determination of MIC in blood, bacterial stocks (10^6 CFU) were grown in the presence or absence of ampicillin in a 5%-blood-supplemented starch-containing MH broth, for 2 hours at 37° C.” for “ampicillin.”
as §2
(§3) We then determined the antibiotic susceptibility or resistance of other bacteria utilizing the IO NPs. […]

Serratia marcescens = experiment: Dextran-coated IO NP/Con A magnetic relaxation (ΔT2) assay of antibiotic resistance; type: cell-based; settings: Serratia marcescens 10^6 CFUs, 2 hours at 37° C. in MH broth; Con A 30-minute incubation at room temperature
Description: as §1, with “ampicillin. For determination of MIC in blood, bacterial stocks (10^6 CFU) were grown in the presence or absence of ampicillin in a 5%-blood-supplemented starch-containing MH broth, for 2 hours at 37° C.” for “ampicillin.”
as §2, §3

E. coli [5] = experiment: Dextran-coated polysaccharide nanosensors, antimicrobial susceptibility in blood-supplemented MH broth; type: cell-based, Escherichia coli; settings: 2 hours at 37° C., 45 minutes following Con A addition at room temperature
Description: as §1, with “ampicillin. For determination of MIC in blood, bacterial stocks (10^6 CFU) were grown in the presence or absence of ampicillin in a 5%-blood-supplemented starch-containing MH broth, for 2 hours at 37° C.” for “ampicillin.”
(§4) Lastly, due to the fact that many bacteria can either cause septicemia or require growth in optically turbid media, it is important to assess bacterial susceptibility in these complex matrices. However, most current methods cannot be utilized for the detection of molecular targets and assessment of antimicrobial susceptibility in blood, due to the strong absorbance and scattering from the matrix's constituents, including platelets and red blood cells. […] After 45 minutes following Con A addition at room temperature, we determined that the E. coli's ampicillin MIC was 8 μg, without observing any nanoparticle precipitation.

S. marcescens [6] = experiment: as above; type: cell-based, Serratia marcescens; settings: 2 hours at 37° C., hour-long incubation at 25° C.
Description: as §1, with “ampicillin. For determination of MIC in blood, bacterial stocks (10^6 CFU) were grown in the presence or absence of ampicillin in a 5%-blood-supplemented starch-containing MH broth, for 2 hours at 37° C.” for “ampicillin.”
as §4

E. coli [7] = experiment: Con A-conjugated nanosensors (non-competition assay), blood cultures; type: cell-based, Escherichia coli; settings: within 5 minutes after addition of bacterial sample
Description: as §1, with “ampicillin. For determination of MIC in blood, bacterial stocks (10^6 CFU) were grown in the presence or absence of ampicillin in a 5%-blood-supplemented starch-containing MH broth, for 2 hours at 37° C.” for “ampicillin.”
(§5) In our first set of experiments with the aminated silica-coated nanoparticles, we determined whether these nanoparticles clustered non-specifically in the presence of Con A in solution. […]
(§6) Then, we examined if MIC determination can be achieved using these Con A-conjugated nanosensors, in blood cultures of E. coli and S. marcescens. […] Likewise, within 5 minutes the Con A-conjugated nanosensors assessed that S. marcescens was resistant to ampicillin, further corroborating the findings that the non-competition assay format provides faster results than the competition-based assay of the dextran-coated nanosensors (FIG. 20B).

S. marcescens [8] = experiment: as above; type: cell-based, Serratia marcescens; settings: within 5 minutes after addition of bacterial sample
Description: as §1, with “ampicillin. For determination of MIC in blood, bacterial stocks (10^6 CFU) were grown in the presence or absence of ampicillin in a 5%-blood-supplemented starch-containing MH broth, for 2 hours at 37° C.” for “ampicillin.”
as §5, §6

SMILES: CC1(C)S[C@@H]2[C@H](NC(=O)[C@H](N)c3ccccc3)C(=O)N2[C@H]1C(=O)O [ampicillin]
- MIC (minimum inhibitory concentration) based on shifts of the surface plasmon band (E. coli [1]): 8 µg
- Lowest ampicillin concentration where the MH broth was clear (turbidity MIC) (E. coli [2]): 8 µg
- Categorization of sample (inhibitory or non-inhibitory) (E. coli [3]; 2 μg ampicillin): non-inhibitory
- Categorization of sample (inhibitory or non-inhibitory) (E. coli [3]; 64 μg ampicillin): inhibitory
- Magnetic-relaxation-determined minimum inhibitory concentration (E. coli [4]): 8 µg
- Magnetic-relaxation-determined minimum inhibitory concentration (Shigella sonnei): 8 µg
- Antibiotic susceptibility or resistance (changes in T2) (Serratia marcescens): resistant
- Ampicillin MIC in blood (E. coli [5]): 8 µg
- Drug susceptibility or resistance in blood (S. marcescens [6]): drug resistance
- Ampicillin MIC in blood cultures, Con A-conjugated nanosensors (E. coli [7]): 8 µg
- Drug susceptibility or resistance in blood cultures, Con A-conjugated nanosensors (S. marcescens [8]): resistant

Source: patent publication US9057094B1, “Nanoparticle-mediated methods for antimicrobial susceptibility testing of bacteria” (UNIVERSITY OF CENTRAL FLORIDA RESEARCH FOUNDATION, INC., priority 2007, dated 2015)
